# Results published in US8691822B2, “Dihydropteridinone derivatives, preparation process and pharmaceutical use thereof” (Jiangsu Hengrui Medicine Co., Ltd., priority 2009, dated 2014).
# Tested on: human cervix cancer cells Hela
# Test: Plk Cell Proliferation Inhibition Assay (CCK8, 72 hours)
# Assay type: cell-based
# Conditions: Hela cells highly expressing Plk
# Description: The following in vitro assay is to determine the activity of the compounds of the present invention for inhibiting the proliferation of human cervix cancer cells Hela, which has high expression of Plk.
# The in vitro cellular assay described here is to determine the activity of the tested compounds for inhibiting the proliferation of cancer cells, which has high expression of Plk. The activity is represented by the […]. The general procedures for the assay are given as follows: The Hela cells highly expressing Plk (Institute of biochemistry and cell biology) were seeded to 96-well cell culture plate at a suitable concentration (exp 3000 cells/ml medium). The cells then were cultured in carbon dioxide (CO2) incubator and grew overnight. Then, the cell culture medium was replaced by fresh one with tested compounds added in it at serial concentrations (general 7 to 9 concentrations). Then the cells were put back to the incubator and cultured for continuous 72 hours. 72 hours later, the activity of the tested compounds for inhibiting the cell proliferation was determined by using CCK8 (cell counting kit-8, Dojindo, NO:CK04) method. IC50 value on tested cells were calculated by the data of inhibition rates of serial concentrations of the tested compounds.
row,SMILES,IC50 [nM]
1,"CC[C@@H]1C(=O)N(C)c2cnc(Nc3ccc(C(=O)NCC4CN(C)CCO4)c4c3OCC4)nc2N1C1CCCC1 (stereo partly drawn) [Example 2, 7-[[(7R)-8-cyclopentyl-7-ethyl-5-methyl-6-oxo-7H-pteridin-2-yl]amino]-N-[(4-methylmorpholin-2-yl)methyl]-2,3-dihydrobenzofuran-4-carboxamide]",8
2,"CC[C@@H]1C(=O)N(C)c2cnc(Nc3ccc(C(=O)N[C@@H]4C[C@@H](OC(C)=O)[C@H](N(C)C)C[C@H]4OC(C)=O)c4c3OCC4)nc2N1C1CCCC1 [Example 3, [(1R,2R,4R,5R)-4-Acetoxy-2-[[7-[[(7R)-8-cyclopentyl-7-ethyl-5-methyl-6-oxo-7H-pteridin-2-yl]amino]-2,3-dihydrobenzofuran-4-carbonyl]amino]-5-dimethylamino-cyclohexyl]acetate]",7
3,"CC[C@@H]1C(=O)N(C)c2cnc(Nc3ccc(C(=O)NC[C@H](O)CN4CCN(CC5CC5)CC4)c4c3OCC4)nc2N1C1CCCC1 [Example 7, 7-[[(7R)-8-Cyclopentyl-7-ethyl-5-methyl-6-oxo-7H-pteridin-2-yl]amino]-N-[(2S)-3-[4-(cyclopropylmethyl)piperazin-1-yl]-2-hydroxy-propyl]-2,3-dihydrobenzofuran-4-carboxamide]",3
4,"CC[C@@H]1C(=O)N(C)c2cnc(Nc3ccc(C(=O)NC[C@H](O)CN4CCN(C)CC4)c4c3OCC4)nc2N1C1CCCC1 [Example 8, 7-[[(7R)-8-Cyclopentyl-7-ethyl-5-methyl-6-oxo-7H-pteridin-2-yl]amino]-N-[(2S)-2-hydroxy-3-(4-methylpiperazin-1-yl)propyl]-2,3-dihydrobenzofuran-4-carboxamide]",3
5,"CC[C@@H]1C(=O)N(C)c2cnc(Nc3ccc(C(=O)N[C@H]4C[C@@H]5CN(CC6CC6)C[C@@H]5C4)c4c3OC(C)(C)C4)nc2N1C1CCCC1 [Example 10, N-[(cis-endo)-2-(Cyclopropylmethyl)-3,3a,4,5,6,6a-hexahydro-1H-cyclopenta[c]pyrrol-5-yl]-7-[[(7R)-8-cyclopentyl-7-ethyl-5-methyl-6-oxo-7H-pteridin-2-yl]amino]-2,2-dimethyl-3H-benzofuran-4-carboxamide]",5
6,"CC[C@@H]1C(=O)N(C)c2cnc(Nc3ccc(C(=O)NC[C@@H]4CN(C)CCO4)c4c3OCC4)nc2N1C1CCCC1 [Example 15, 7-[[(7R)-8-Cyclopentyl-7-ethyl-5-methyl-6-oxo-7H-pteridin-2-yl]amino]-N-[[(2R)-4-methylmorpholin-2-yl]methyl]-2,3-dihydrobenzofuran-4-carboxamide]",3
7,"CC[C@@H]1C(=O)N(C)c2cnc(Nc3ccc(C(=O)N[C@H]4CC[C@H](N5CCN(CC6CC6)CC5)CC4)c4c3OC(C)(C)C4)nc2N1C1CCCC1 [Example 16, 7-[[(7R)-8-Cyclopentyl-7-ethyl-5-methyl-6-oxo-7H-pteridin-2-yl]amino]-N-[(trans)-4-[4-(cyclopropylmethyl)piperazin-1-yl]cyclohexyl]-2,2-dimethyl-3H-benzofuran-4-carboxamide]",30
8,"CC[C@@H]1C(=O)N(C)c2cnc(Nc3ccc(C(=O)N[C@H]4CC[C@H](N5CCN(C)CC5)CC4)c4c3OC(C)(C)C4)nc2N1C1CCCC1 [Example 17, 7-[[(7R)-8-Cyclopentyl-7-ethyl-5-methyl-6-oxo-7H-pteridin-2-yl]amino]-2,2-dimethyl-N-[(trans)-4-(4-methylpiperazin-1-yl)cyclohexyl]-3H-benzofuran-4-carboxamide]",10
9,"CC[C@@H]1C(=O)N(C)c2cnc(Nc3ccc(C(=O)N[C@H]4CC[C@H](N5CCN(C)CC5)CC4)c4c3OCC4)nc2N1C1CCCC1 [Example 19, 7-[[(7R)-8-Cyclopentyl-7-ethyl-5-methyl-6-oxo-7H-pteridin-2-yl]amino]-N-[(trans)-4-(4-methylpiperazin-1-yl)cyclohexyl]-2,3-dihydrobenzofuran-4-carboxamide]",3

# The next compounds have a lower IC50 than those just listed; values first:
row,IC50 [nM],SMILES
1,2,"CC[C@@H]1C(=O)N(C)c2cnc(Nc3ccc(C(=O)NC4CCN(C)CC4)c4c3OC(C)(C)C4)nc2N1C1CCCC1 [Example 4, 7-[[(7R)-8-Cyclopentyl-7-ethyl-5-methyl-6-oxo-7H-pteridin-2-yl]amino]-2,2-dimethyl-N-(1-methyl-4-piperidyl)-3H-benzofuran-4-carboxamide]"
2,1,CC[C@@H]1C(=O)N(C)c2cnc(Nc3ccc(C(=O)N[C@@H]4C[C@@H]5CN(C)C[C@@H]5C4)c4c3OCC4)nc2N1C1CCCC1 [Example 5]
3,2,"CC[C@@H]1C(=O)N(C)c2cnc(Nc3ccc(C(=O)N[C@@H]4C[C@@H]5CN(C)C[C@@H]5C4)c4c3OC(C)(C)C4)nc2N1C1CCCC1 [Example 6, (cis-exo)-N-[2-Methyl-3,3a,4,5,6,6a-hexahydro-1H-cyclopenta[c]pyrrol-5-yl]-7-[[(7R)-8-cyclopentyl-7-ethyl-5-methyl-6-oxo-7H-pteridin-2-yl]amino]-2,2-dimethyl-3H-benzofuran-4-carboxamide]"
4,2,"CC[C@@H]1C(=O)N(C)c2cnc(Nc3ccc(C(=O)N[C@H]4C[C@@H]5CN(C)C[C@@H]5C4)c4c3OC(C)(C)C4)nc2N1C1CCCC1 [Example 9, (cis-endo)-N-[2-Methyl-3,3α,4,5,6,6α-hexahydro-1H-cyclopenta[c]pyrrol-5-yl]-7-[[(7R)-8-cyclopentyl-7-ethyl-5-methyl-6-oxo-7H-pteridin-2-yl]amino]-2,2-dimethyl-3H-benzofuran-4-carboxamide]"
5,1,"CC[C@@H]1C(=O)N(C)c2cnc(Nc3ccc(C(=O)N[C@H]4C[C@@H]5CN(C)C[C@@H]5C4)c4c3OCC4)nc2N1C1CCCC1 [Example 11, (cis-endo)-N-[2-Methyl-3,3a,4,5,6,6a-hexahydro-1H-cyclopenta[c]pyrrol-5-yl]-7-[[(7R)-8-cyclopentyl-7-ethyl-5-methyl-6-oxo-7H-pteridin-2-yl]amino]-2,3-dihydrobenzofuran-4-carboxamide]"
6,0.8,"CC[C@@H]1C(=O)N(C)c2cnc(Nc3ccc(C(=O)N[C@H]4CC[C@@H](N5CCN(CC6CC6)CC5)CC4)c4c3OCC4)nc2N1C1CCCC1 [Example 12, 7-[[(7R)-8-Cyclopentyl-7-ethyl-5-methyl-6-oxo-7H-pteridin-2-yl]amino]-N-[(cis)-4-[4-(cyclopropylmethyl)piperazin-1-yl]cyclohexyl]-2,3-dihydrobenzofuran-4-carboxamide]"
7,1,"CC[C@@H]1C(=O)N(C)c2cnc(Nc3ccc(C(=O)N[C@H]4C[C@@H]5CN(CC6CC6)C[C@@H]5C4)c4c3OCC4)nc2N1C1CCCC1 [Example 13, (cis-endo)-N-[2-(Cyclopropylmethyl)-3,3a,4,5,6,6a-hexahydro-1H-cyclopenta[c]pyrrol-5-yl]-7-[[(7R)-8-cyclopentyl-7-ethyl-5-methyl-6-oxo-7H-pteridin-2-yl]amino]-2,3-dihydrobenzofuran-4-carboxamide]"
8,1,"CC[C@@H]1C(=O)N(C)c2cnc(Nc3ccc(C(=O)N[C@@H]4C[C@H]5CCN(C)C[C@H]5C4)c4c3OCC4)nc2N1C1CCCC1 [Example 14, (cis-endo)-N-[2-Methyl-1,3,3a,4,5,6,7,7a-octahydrocyclopenta[c]pyridin-6-yl]-7-[[(7R)-8-cyclopentyl-7-ethyl-5-methyl-6-oxo-7H-pteridin-2-yl]amino]-2,3-dihydrobenzofuran-4-carboxamide]"
